{"source": "patent US12384969B2", "about": "“Enhancement of soil characteristics with lactobionate compounds” (Leprino Foods Company, priority 2017, dated 2025)", "key": {"[1]": {"tested_on": "soil microbial biomass", "test": "Soil microbial biomass carbon (MBC), chloroform-fumigation extraction, two-month laboratory soil incubation"}, "[2]": {"test": "Water absorbed after exposure to 100% relative humidity for 4 hours (FIG. 6)", "type": "physicochemical", "conditions": "nine substances plus control", "description": "When one of the hydroxyl groups occurs in the alpha position, the PHA is a polyhydroxy alpha-hydroxy acid (AHA); when an additional sugar is attached to the PHA structure the molecule is a bionic acid. […] The multiple hydroxyl groups in PHAs attract and hydrogen bond surrounding water molecules, which increase the humectant properties of the compounds."}, "[3]": {"conditions": "Akron, CO (Ak) soil, HC, 1 month"}, "[4]": {"conditions": "Akron, CO (Ak) soil, LC, 1 month"}, "[5]": {"conditions": "Fresno, CA (Fr) soil, HC, 1 month"}, "[6]": {"conditions": "Fresno, CA (Fr) soil, HC, 2 wks"}, "[7]": {"conditions": "Fresno, CA (Fr) soil, LC, 1 month"}, "[8]": {"conditions": "Fresno, CA (Fr) soil, LC, 2 wks"}}, "data": [{"smiles": "O=C([O-])[C@H](O)[C@@H](O)[C@H](O[C@@H]1O[C@H](CO)[C@H](O)[C@H](O)[C@H]1O)[C@H](O)CO.O=C([O-])[C@H](O)[C@@H](O)[C@H](O[C@@H]1O[C@H](CO)[C@H](O)[C@H](O)[C@H]1O)[C@H](O)CO.[Ca+2]", "note": "[Ca-LB, calcium lactobionate]", "values": [{"measurement": "MBC", "setting": "[1]; [3]", "value": "6395.35^CDE mg C kg -soil"}, {"measurement": "MBC", "setting": "[1]; Akron, CO (Ak) soil, HC, 2 wks", "value": "9197.28^ABC mg C kg -soil"}, {"measurement": "MBC", "setting": "[1]; [4]", "value": "9816.22^C mg C kg -soil"}, {"measurement": "MBC", "setting": "[1]; Akron, CO (Ak) soil, LC, 2 wks", "value": "13087.10^A mg C kg -soil"}, {"measurement": "MBC", "setting": "[1]; [5]", "value": "11289.89^BC mg C kg -soil"}, {"measurement": "MBC", "setting": "[1]; [6]", "value": "10362.94^A mg C kg -soil"}, {"measurement": "MBC", "setting": "[1]; [7]", "value": "7560.73^CD mg C kg -soil"}, {"measurement": "MBC", "setting": "[1]; [8]", "value": "10133.11^A mg C kg -soil"}]}, {"smiles": "O=C([O-])[C@H](O)[C@@H](O)[C@H](O[C@@H]1O[C@H](CO)[C@H](O)[C@H](O)[C@H]1O)[C@H](O)CO.[K+]", "note": "[K-LB, potassium lactobionate]", "values": [{"measurement": "MBC", "setting": "[1]; [3]", "value": "7790.40^CD mg C kg -soil"}, {"measurement": "MBC", "setting": "[1]; Akron, CO (Ak) soil, HC, 2 wks", "value": "8349.51^AC mg C kg -soil"}, {"measurement": "MBC", "setting": "[1]; [4]", "value": "10597.30^BC mg C kg -soil"}, {"measurement": "MBC", "setting": "[1]; Akron, CO (Ak) soil, LC, 2 wks", "value": "11189.75^A mg C kg -soil"}, {"measurement": "MBC", "setting": "[1]; [5]", "value": "16689.85^AB mg C kg -soil"}, {"measurement": "MBC", "setting": "[1]; [6]", "value": "1369.60^A mg C kg -soil"}, {"measurement": "MBC", "setting": "[1]; [7]", "value": "7277.63^CD mg C kg -soil"}, {"measurement": "MBC", "setting": "[1]; [8]", "value": "12167.76^A mg C kg -soil"}]}, {"smiles": "O=C(O)[C@H](O)[C@@H](O)[C@H](O[C@@H]1O[C@H](CO)[C@H](O)[C@H](O)[C@H]1O)[C@H](O)CO", "note": "[LBA, lactobionic acid]", "values": [{"measurement": "Weight of water absorbed per mole of substance", "setting": "[2]", "value": "highest"}]}, {"smiles": "N.O=C(O)[C@H](O)[C@@H](O)[C@H](O[C@@H]1O[C@H](CO)[C@H](O)[C@H](O)[C@H]1O)[C@H](O)CO", "note": "[NH4-LB, ammonium lactobionate]", "values": [{"measurement": "MBC", "setting": "[1]; [3]", "value": "869.62^EF mg C kg -soil"}, {"measurement": "MBC", "setting": "[1]; Akron, CO (Ak) soil, HC, 2 wks", "value": "11037.60^A mg C kg -soil"}, {"measurement": "MBC", "setting": "[1]; [4]", "value": "3225.38^DEF mg C kg -soil"}, {"measurement": "MBC", "setting": "[1]; Akron, CO (Ak) soil, LC, 2 wks", "value": "9911.52^A mg C kg -soil"}, {"measurement": "MBC", "setting": "[1]; [5]", "value": "18504.80^A mg C kg -soil"}, {"measurement": "MBC", "setting": "[1]; [6]", "value": "13627.26^A mg C kg -soil"}, {"measurement": "MBC", "setting": "[1]; [7]", "value": "739.12^EF mg C kg -soil"}, {"measurement": "MBC", "setting": "[1]; [8]", "value": "8610.50^AC mg C kg -soil"}, {"measurement": "Total MBC compared between LB amendments", "setting": "[1]; at 1 month", "value": "lower"}]}]}
